Measurements reported in article PMC6173502 (2018).

Key:
Test in all cases: ITC
[1] = test system: hTel22 (DNA, G4) AGGGTTAGGGTTAGGGTTAGGG; settings: 20 mM Tris, 1 mM EDTA, 30% DMSO, pH 7.2, 25 °C, mode 1 of 3
[2] = test system: BCL2 3-5-3 (DNA, G4) CGGGCACGGGAAAAAGGGAACGGGAAC; settings: K+ 150 mM (KCl); 20 mM Tris, 1 mM EDTA, 30% DMSO, pH 7.2, 25 °C; mode 1 of 3
[3] = test system: BCL2 3-6-2 (DNA, G4) CGGGCACGGGAAAAAAGGGACGGGAAC; settings: K+ 150 mM (KCl); 20 mM Tris, 1 mM EDTA, 30% DMSO, pH 7.2, 25 °C; mode 1 of 3
[4] = test system: KRAS 6-4-4 (DNA, G4) GGGCAATATGGGAAAAGGGAAAAGGGAAAA; settings: K+ 150 mM (KCl); 20 mM Tris, 1 mM EDTA, 30% DMSO, pH 7.2, 25 °C; mode 1 of 3
[5] = test system: KRAS 6-4-6 (DNA, G4) GGGCAATATGGGAAAAGGGAAAAAAGGGAA; settings: K+ 150 mM (KCl); 20 mM Tris, 1 mM EDTA, 30% DMSO, pH 7.2, 25 °C; mode 1 of 3

Ka ([1]; K+ 150 mM (KCl)): 13.7 × 10^7
Ka ([1]; Na+ 150 mM (NaCl)): 18.2 × 10^7
Ka [2]: 17.5 × 10^7
Ka [3]: 41.5 × 10^7
Ka [4]: 25.5 × 10^7
Ka [5]: 3.85 × 10^7
SMILES: N=C(N)c1ccc(N=NNc2ccc(C(=N)N)cc2)cc1
